Values quoted from earlier work, collected in patent US4332794A, “6"-Deoxydibekacin, 4",6"-dideoxydibekacin and 1-N-aminoacyl derivatives thereof, and the production of these new compounds” (Zaidan Hojin Biseibutsu Kagaku Kenkyu Kai, priority 1979, dated 1982).

Legend:
[1] = test system: dibekacin-resistant bacteria; details: prior art; cited from earlier work
[2] = Japanese patent application No. 54733/79; cited from earlier work
[3] = test system: bacteria; details: Japanese patent application No. 54733/79; cited from earlier work

NCC[C@H](O)C(=O)N[C@@H]1C[C@H](N)[C@@H](O[C@H]2O[C@H](CN)CC[C@H]2N)[C@H](O)[C@H]1O[C@H]1O[C@H](CO)[C@@H](O)[C@H](N)[C@H]1O [1-N-(L-4-amino-2-hydroxybutyryl)-3',4'-dideoxykanamycin B]
antibacterial activity [1]: effective against dibekacin-resistant bacteria

C[C@@H]1C[C@H](N)[C@@H](O)[C@@H](O[C@@H]2[C@@H](O)[C@H](O[C@H]3O[C@H](CN)[C@@H](O)[C@H](O)[C@H]3O)[C@@H](N)C[C@H]2NC(=O)[C@@H](O)CCN)O1 [4",6"-dideoxyamikacin, 1-N-(L-4-amino-2-hydroxybutyryl)-4",6"-dideoxykanamycin A]
oto-toxicity [2]: low oto-toxicity | antibacterial activity compared to amikacin [3]: antibacterial activity as high as that of amikacin

C[C@H]1O[C@H](O[C@@H]2[C@@H](O)[C@H](O[C@H]3O[C@H](CN)[C@@H](O)[C@H](O)[C@H]3O)[C@@H](N)C[C@H]2NC(=O)[C@@H](O)CCN)[C@H](O)[C@@H](N)[C@@H]1O [6"-deoxyamikacin, 1-N-(L-4-amino-2-hydroxybutyryl)-6"-deoxykanamycin A]
oto-toxicity [2]: low oto-toxicity | antibacterial activity compared to amikacin [3]: antibacterial activity as high as that of amikacin
